Results on ten compounds are retold here after ChEMBL document CHEMBL5625238, “Lead generation from N-[benzyl(4-phenylbutyl)carbamoyl]amino acid as a novel LPA1 antagonist for the treatment of systemic sclerosis” (Eur J Med Chem, 2023).

The target of data set [1] is Lysophosphatidic acid receptor 1 (Homo sapiens, UniProt Q92633). Description: Antagonist activity at human LPA1 receptor stably expressed in rat RH7777 cells assessed as reduction in LPA-induced intracellular Ca2+ concentration preincubated for 30 mins followed by LPA addition measured by Fluo-4 probe based fluorescence assay.
Sequence of Lysophosphatidic acid receptor 1 (Q92633 whole entry): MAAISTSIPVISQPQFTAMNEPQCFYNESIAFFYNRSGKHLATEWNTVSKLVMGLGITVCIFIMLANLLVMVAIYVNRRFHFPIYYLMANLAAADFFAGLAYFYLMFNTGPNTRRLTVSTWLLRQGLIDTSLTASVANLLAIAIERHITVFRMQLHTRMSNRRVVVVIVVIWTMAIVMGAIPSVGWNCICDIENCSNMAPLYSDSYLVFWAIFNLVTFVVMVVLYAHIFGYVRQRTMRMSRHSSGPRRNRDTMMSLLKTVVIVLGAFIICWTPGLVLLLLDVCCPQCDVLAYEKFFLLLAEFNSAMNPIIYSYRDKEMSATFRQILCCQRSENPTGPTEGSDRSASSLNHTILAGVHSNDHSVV
In data set [2] the target is Lysophosphatidic acid receptor 1 (Mus musculus) (UniProt P61793). Description: In vivo antagonist activity at LPA1 receptor in C57BL/6J mouse assessed as inhibition of LPA-induced histamine release from mast cells at 100 mg/kg, po administered via gavage and measured after 8 hrs by enzyme immunoassay relative to control. It counts as functional, organism-based.
Sequence of Lysophosphatidic acid receptor 1 (Mus musculus) (P61793 whole entry): as the sequence (Q92633 whole entry) above, with I4A, I8S, P22Q, H40Y, I61V, E193D, N194H, I269V, S331N, T335N counted along it
A short description of data set [3]: Plasma concentration in LPA-induced C57BL/6J mouse at 30 mg/kg, po administered via gavage and measured after 4 hrs by LC-MS/MS analysis. The class given is ADME, organism-based.
Data set [4] has as its system Mus musculus. Description: Anti-hypertrophic activity in po dosed C57BL/6 mouse model of bleomycin-induced skin fibrosis assessed as reduction in skin thickness administered twice daily via gavage for 28 days measured post last dose by caliper method. The class given is functional, organism-based. The settings on record: dose 10-100 mg/kg, time 28.0 day.
Data set [5] concerns the target Lysophosphatidic acid receptor 1 (Mus musculus) (UniProt P61793). Kind of data set: In vivo antagonist activity at LPA1 receptor in C57BL/6J mouse assessed as inhibition of LPA-induced histamine release from mast cells at 10 mg/kg, po administered via gavage and measured after 8 hrs by enzyme immunoassay relative to control. It counts as functional, organism-based.

Data set [6] can be described thus: Plasma concentration in LPA-induced C57BL/6J mouse at 100 mg/kg, po administered via gavage and measured after 1 hr by LC-MS/MS analysis. The class given is ADME, organism-based.
The species entered for data set [7] is Mus musculus. Description: animal or person. As to conditions: C57BL/6, po, 672 h, read-out: INH.
Description: Anti-fibrotic activity in C57BL/6 mouse model of bleomycin-induced skin fibrosis assessed as inhibition of collagen production by measuring reduction in hydroxyproline content at 30 mg/kg, po administered twice daily via gavage for 28 days measured post last dose relative to control
Data set [8] deals with Lysophosphatidic acid receptor 1 (Mus musculus) (UniProt P61793). Kind of data set: In vivo antagonist activity at LPA1 receptor in C57BL/6J mouse assessed as inhibition of LPA-induced histamine release from mast cells at 30 mg/kg, po administered via gavage and measured after 8 hrs by enzyme immunoassay relative to control. The class given is functional, organism-based.
The nature of data set [9]: Plasma concentration in LPA-induced C57BL/6J mouse at 10 mg/kg, po administered via gavage and measured after 8 hrs by LC-MS/MS analysis. The class given is ADME, organism-based.
Data set [10] can be described thus: Plasma concentration in LPA-induced C57BL/6J mouse at 100 mg/kg, po administered via gavage and measured after 8 hrs by LC-MS/MS analysis. It counts as ADME, organism-based.
Data set [11] has as its target Lysophosphatidic acid receptor 1 (Mus musculus) (UniProt P61793). Description: In vivo antagonist activity at LPA1 receptor in C57BL/6J mouse assessed as inhibition of LPA-induced histamine release from mast cells at 30 mg/kg, po administered via gavage and measured after 4 hrs by enzyme immunoassay relative to control. It counts as functional, organism-based.
For data set [12] the target is unchanged. Kind of data set: In vivo antagonist activity at LPA1 receptor in C57BL/6J mouse assessed as inhibition of LPA-induced histamine release from mast cells at 100 mg/kg, po administered via gavage and measured after 4 hrs by enzyme immunoassay relative to control. The class given is functional, organism-based.
The nature of data set [13]: Plasma concentration in LPA-induced C57BL/6J mouse at 30 mg/kg, po administered via gavage and measured after 1 hr by LC-MS/MS analysis. It counts as ADME, organism-based.
Data set [14] can be described thus: Plasma concentration in LPA-induced C57BL/6J mouse at 30 mg/kg, po administered via gavage and measured after 8 hrs by LC-MS/MS analysis. The class given is ADME, organism-based.
Data set [15] addresses Lysophosphatidic acid receptor 1 (Mus musculus) (UniProt P61793). Kind of data set: In vivo antagonist activity at LPA1 receptor in C57BL/6J mouse assessed as inhibition of LPA-induced histamine release from mast cells at 100 mg/kg, po administered via gavage and measured after 1 hr by enzyme immunoassay relative to control. The class given is functional, organism-based.

Data set [16] shares this target. Description: In vivo antagonist activity at LPA1 receptor in C57BL/6J mouse assessed as inhibition of LPA-induced histamine release from mast cells at 10 mg/kg, po administered via gavage and measured after 1 hr by enzyme immunoassay relative to control. It counts as functional, organism-based.
Data set [17] can be described thus: Plasma concentration in LPA-induced C57BL/6J mouse at 100 mg/kg, po administered via gavage and measured after 4 hrs by LC-MS/MS analysis. The class given is ADME, organism-based.
Data set [18] is filed under the species Mus musculus. Description: animal or person. The settings on record: C57BL/6, po, 672 h, read-out: INH. This is another data set of the same source.
Description: Anti-fibrotic activity in C57BL/6 mouse model of bleomycin-induced skin fibrosis assessed as inhibition of collagen production by measuring reduction in hydroxyproline content at 10 mg/kg, po administered twice daily via gavage for 28 days measured post last dose relative to control
For data set [19], the target named is Lysophosphatidic acid receptor 1 (Mus musculus) (UniProt P61793). Kind of data set: In vivo antagonist activity at LPA1 receptor in C57BL/6J mouse assessed as inhibition of LPA-induced histamine release from mast cells at 30 mg/kg, po administered via gavage and measured after 1 hr by enzyme immunoassay relative to control. The class given is functional, organism-based.

A short description of data set [20]: Plasma concentration in LPA-induced C57BL/6J mouse at 10 mg/kg, po administered via gavage and measured after 4 hrs by LC-MS/MS analysis. It counts as ADME, organism-based.
For data set [21], the target named is Lysophosphatidic acid receptor 1 (Mus musculus) (UniProt P61793). Description: In vivo antagonist activity at LPA1 receptor in C57BL/6J mouse assessed as inhibition of LPA-induced histamine release from mast cells at 10 mg/kg, po administered via gavage and measured after 4 hrs by enzyme immunoassay relative to control. It counts as functional, organism-based.

The test system of data set [22] is Mus musculus. Description: Anti-fibrotic activity in po dosed C57BL/6 mouse model of bleomycin-induced skin fibrosis assessed as inhibition of collagen production by measuring reduction in hydroxyproline content administered twice daily via gavage for 28 days measured post last dose. As to conditions: dose 10-100 mg/kg, time 28.0 day. It counts as functional, organism-based.

Data set [23] is filed under the species Mus musculus. Kind of data set: animal or person. As to conditions: C57BL/6, po, 672 h, read-out: INH. The source holds these as a separate data set.
Description: Anti-fibrotic activity in C57BL/6 mouse model of bleomycin-induced skin fibrosis assessed as inhibition of collagen production by measuring reduction in hydroxyproline content at 100 mg/kg, po administered twice daily via gavage for 28 days measured post last dose relative to control
Data set [24] can be described thus: Plasma concentration in LPA-induced C57BL/6J mouse at 10 mg/kg, po administered via gavage and measured after 1 hr by LC-MS/MS analysis. It counts as ADME, organism-based.
For data set [25], the species on record is Mus musculus. Description: animal or person. The settings on record: C57BL/6, po, 672 h, read-out: INH. This is another data set of the same source.
Description: Anti-fibrotic activity in C57BL/6 mouse model of bleomycin-induced skin fibrosis assessed as inhibition of collagen production by measuring reduction in hydroxyproline content at 2 mg/kg, po administered once daily via gavage for 28 days measured post last dose relative to control

For orientation: IC50 means the midpoint of a concentration-inhibition curve. For the compound `COc1cc([C@@H](C)N(CCCCCc2ccccc2)C(=O)NC2(C(=O)O)CC(F)(F)C2)cc(OC)c1C`, in [1], the half-maximal inhibitory concentration (IC50) was determined as 586 nM.
On the same count and under the same terms, then `COc1cc([C@@H](C)N(CCCc2ccccc2)C(=O)NC2(C(=O)O)CC(F)(F)C2)cc(OC)c1C`, with 51.4 nM.
On the same count and under the same terms, then `COc1cc(CN(CCCCc2ccccc2)C(=O)NC2(C(=O)O)CCCC2)cc(OC)c1C`, with 1790 nM; and `COc1cc([C@H](C)N(CCCCc2ccccc2)C(=O)NC2(C(=O)O)CC(F)(F)C2)cc(OC)c1C`, with 470 nM.
Regarding `COc1cc(CN(CCCCc2ccccc2)C(=O)NC(C)(C)C(=O)O)cc(OC)c1C`, the IC50 in data set [1] was 2140 nM.
As for `COc1cc(CN(CCCCc2ccccc2)C(=O)NC2(C(=O)O)CC2)cc(OC)c1C`, in data set [1], the 50% inhibitory concentration (IC50) was determined as 2750 nM.
Broadly, the inhibition is the change of the read-out against control, counted positive when it falls. Take `COc1cc([C@@H](C)N(CCCCc2ccccc2)C(=O)NC2(C(=O)O)CC(F)(F)C2)cc(OC)c1C`: the inhibition was found to be 77% in data set [2]; 2% in data set [5]; 44% in data set [8]; 66% in data set [11]; 94% in data set [12]; 95% in data set [15]. In addition, the inhibition in [16] was 58%; in data set [19], 94%; in data set [21], 36%; in data set [22], “Dose-Dependent Effect”. Besides, the values for the concentration at 4 h in data set [3], in [17] and in data set [20] were 805 ng/mL, 7160 ng/mL and 252 ng/mL, respectively. Further, the Activity entry in data set [4] was “Dose-Dependent Effect”. The results for the concentration at 1 h in data set [6], in data set [13] and in data set [24] were 12100 ng/mL, 4240 ng/mL and 892 ng/mL, respectively. Moreover, the inhibition in vivo at 30 mg/kg in data set [7] worked out at 49%. Besides, the concentration at 8 h stood at 175 ng/mL in data set [9], 2460 ng/mL in data set [10] and 596 ng/mL in [14]. In data set [18], the inhibition in vivo at 10 mg/kg is 22%. The inhibition in vivo at 100 mg/kg in [23] was found to be 77%.
`COc1cc(CN(CCCCc2ccccc2)C(=O)NC2(C(=O)O)CCCCC2)cc(OC)c1C`: in [1], the concentration for half-maximal inhibition (IC50) came out at 2150 nM.
On to `C[C@]12C=CC(=O)C=C1CC[C@@H]1[C@@H]2C(=O)C[C@@]2(C)[C@H]1CC[C@]2(O)C(=O)CO` [PREDNISONE], for which the inhibition in vivo at 2 mg/kg in [25] turned out to be 63%.
Turning to `COc1cc(CN(CCCCc2ccccc2)C(=O)N[C@H](CC(C)C)C(=O)O)cc(OC)c1C`, the 50% inhibitory concentration (IC50) in data set [1] was 3660 nM.
